Assay results published in patent US8853203B2, “Diazepinone derivatives” (Novartis AG, priority 2012, dated 2014).

Experiments:
human mGluR5a receptors = human mGluR5a receptors (Homo sapiens (Human), UniProt P41594); test: inhibition of glutamate-induced elevation of intracellular calcium in L(tk-) cells expressing human mGluR5a; format: cell-based; details: for IC50: glutamate-induced intracellular calcium elevation, L(tk-) cells expressing human mGluR5a, read-out: mGluR5 IC50; for inhibition at 10 µM: read-out: mGluR5 % inhibition at 10 μM
Sequence of human mGluR5a receptors (P41594 other isoform, or with tags, fused parts or gaps): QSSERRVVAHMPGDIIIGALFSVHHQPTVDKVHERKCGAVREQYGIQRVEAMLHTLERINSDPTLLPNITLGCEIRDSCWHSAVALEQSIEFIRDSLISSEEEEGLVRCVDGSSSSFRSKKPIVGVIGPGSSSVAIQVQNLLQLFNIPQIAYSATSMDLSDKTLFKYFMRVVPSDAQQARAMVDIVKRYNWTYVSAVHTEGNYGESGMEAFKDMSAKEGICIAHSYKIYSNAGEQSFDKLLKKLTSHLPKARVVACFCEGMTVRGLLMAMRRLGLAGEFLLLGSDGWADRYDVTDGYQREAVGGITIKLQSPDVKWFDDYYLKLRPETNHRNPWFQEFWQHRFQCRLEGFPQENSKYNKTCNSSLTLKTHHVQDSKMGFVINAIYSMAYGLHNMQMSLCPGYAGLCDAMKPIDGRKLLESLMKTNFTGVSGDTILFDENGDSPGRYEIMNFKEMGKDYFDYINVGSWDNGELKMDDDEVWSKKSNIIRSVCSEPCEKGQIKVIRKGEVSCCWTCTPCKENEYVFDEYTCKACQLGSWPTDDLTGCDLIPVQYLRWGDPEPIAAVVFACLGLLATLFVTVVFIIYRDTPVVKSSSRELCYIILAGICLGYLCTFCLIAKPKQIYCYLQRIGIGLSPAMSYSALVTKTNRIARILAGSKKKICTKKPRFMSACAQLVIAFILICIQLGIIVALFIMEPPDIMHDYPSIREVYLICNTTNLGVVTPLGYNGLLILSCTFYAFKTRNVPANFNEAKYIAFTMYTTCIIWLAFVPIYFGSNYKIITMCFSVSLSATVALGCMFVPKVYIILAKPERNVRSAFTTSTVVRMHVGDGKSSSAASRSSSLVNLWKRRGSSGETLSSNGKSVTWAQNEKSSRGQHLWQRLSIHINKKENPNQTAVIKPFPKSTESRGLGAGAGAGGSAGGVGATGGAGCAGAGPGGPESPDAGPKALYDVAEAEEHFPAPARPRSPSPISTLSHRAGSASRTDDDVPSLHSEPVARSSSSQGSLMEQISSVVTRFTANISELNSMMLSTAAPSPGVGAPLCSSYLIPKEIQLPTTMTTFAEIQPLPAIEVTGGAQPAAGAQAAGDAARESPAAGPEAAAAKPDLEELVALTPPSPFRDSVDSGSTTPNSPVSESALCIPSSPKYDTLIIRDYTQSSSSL
Text: Activity of compounds of the present invention was examined by determination to what extent the glutamate-induced elevation of the intracellular calcium concentration in L(tk-) cells expressing human mGluR5a receptors (see L. P. Daggett et al., Neuropharm. Vol. 34, pages 871-886, 1995) is inhibited by utilizing methods as described e.g. by L. P. Daggett et al., Neuropharm. Vol. 34, pages 871-886 (1995) and P. J. Flor et al., J. Neurochem. Vol. 67, pages 58-63 (1996).

human mGluR1 = human mGluR1 (Homo sapiens (Human), UniProt Q13255); test: mGluR1 antagonism, L-glutamate induced intracellular calcium increase (FLIPR) in CHO cells stably expressing human mGluR1; format: cell-based; details: for IC50: L-glutamate induced intracellular calcium, CHO cells expressing human mGluR1, FLIPR
Sequence of human mGluR1 (Q13255 19-1194): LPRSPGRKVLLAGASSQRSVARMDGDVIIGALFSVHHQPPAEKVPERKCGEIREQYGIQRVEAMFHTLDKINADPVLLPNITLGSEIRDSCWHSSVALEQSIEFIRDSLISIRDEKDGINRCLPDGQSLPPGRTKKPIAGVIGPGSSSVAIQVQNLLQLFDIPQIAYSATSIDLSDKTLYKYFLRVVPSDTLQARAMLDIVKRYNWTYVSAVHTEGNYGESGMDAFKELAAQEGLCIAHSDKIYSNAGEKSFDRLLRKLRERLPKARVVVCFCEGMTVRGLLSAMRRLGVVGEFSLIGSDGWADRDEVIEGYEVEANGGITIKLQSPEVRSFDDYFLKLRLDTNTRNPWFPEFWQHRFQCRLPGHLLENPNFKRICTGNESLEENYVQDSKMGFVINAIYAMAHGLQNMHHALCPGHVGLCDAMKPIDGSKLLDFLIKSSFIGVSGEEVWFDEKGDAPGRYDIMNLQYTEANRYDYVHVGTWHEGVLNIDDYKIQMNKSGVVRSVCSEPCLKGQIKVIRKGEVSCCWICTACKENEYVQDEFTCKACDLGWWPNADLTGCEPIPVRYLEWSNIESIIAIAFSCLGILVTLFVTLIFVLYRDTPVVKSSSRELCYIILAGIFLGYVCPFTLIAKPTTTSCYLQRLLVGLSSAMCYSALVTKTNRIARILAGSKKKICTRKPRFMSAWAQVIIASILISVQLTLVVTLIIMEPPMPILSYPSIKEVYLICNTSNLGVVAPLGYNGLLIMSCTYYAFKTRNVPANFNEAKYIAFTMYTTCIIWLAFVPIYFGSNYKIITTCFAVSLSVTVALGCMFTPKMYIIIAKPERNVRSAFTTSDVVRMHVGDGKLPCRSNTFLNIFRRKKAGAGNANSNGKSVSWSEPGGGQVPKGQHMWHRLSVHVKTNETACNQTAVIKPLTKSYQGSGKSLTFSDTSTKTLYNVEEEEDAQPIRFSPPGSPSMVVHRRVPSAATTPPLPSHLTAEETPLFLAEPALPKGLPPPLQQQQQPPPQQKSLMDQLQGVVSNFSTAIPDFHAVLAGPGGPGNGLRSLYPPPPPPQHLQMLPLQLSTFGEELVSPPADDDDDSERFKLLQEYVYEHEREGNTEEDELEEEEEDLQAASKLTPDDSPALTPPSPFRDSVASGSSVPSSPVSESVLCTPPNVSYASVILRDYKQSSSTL
Text: Activity of compounds of the present invention with respect to mGluR1 antagonism was examined by an assay based on measurements of L-glutamate induced intracellular calcium increases using a 96 well plate-based Fluorometric Imaging Plate Reader (FLIPR), and CHO cells stably expressing human mGluR1. L-glutamate induced robust calcium responses via human mGluR1 in a concentration-dependent manner and in the low micromolar range. The table below represents IC50 values of the inhibition of the glutamate-induced elevation of the intracellular calcium concentration.

Compound	IC50 (human mGluR5a receptors) [nM]	inhibition at 10 µM (human mGluR1; CHO) [%]	IC50 (human mGluR1) [nM]	inhibition at 2 µM (human mGluR5a receptors; LTK, read-out: mGluR5 % inhibition at 2 μM) [%]	inhibition at 10 µM (human mGluR5a receptors; LTK) [%]
COCc1cn(C2=NCC(=O)N3CCc4c(cccc4-c4ncc(C)s4)C3=C2)cn1 [Example 77]	32	73			
O=C1CN=C(n2cnc(C3CC3)n2)C=C2c3cccc(-c4cccc(F)n4)c3CCN12 [Example 134, 2-(3-cyclopropyl-1H-1,2,4-triazol-1-yl)-9-(6-fluoropyridin-2-yl)-7,8-dihydro-[1,4]diazepino[7,1-a]isoquinolin-5(4H)-one]	198		> 10000		
O=C1CN=C(n2cnc(C3CCC3)n2)C=C2c3cccc(-c4ccc(F)nc4)c3CCN12 [Example 99h, 2-(3-cyclobutyl-1H-1,2,4-triazol-1-yl)-9-(6-fluoropyridin-3-yl)-7,8-dihydro-[1,4]diazepino[7,1-a]isoquinolin-5(4H)-one]	38				
O=C1CN=C(n2cnc(C3CC3)n2)C=C2c3cccc(-c4ccc(F)nc4)c3CCN12 [Example 95-2, 2-(3-cyclopropyl-1H-1,2,4-triazol-1-yl)-9-(6-fluoropyridin-3-yl)-7,8-dihydro-[1,4]diazepino[7,1-a]isoquinolin-5(4H)-one]	11		> 10000		
O=C1CN=C(n2cnc(C3(O)CC3)c2)C=C2c3cccc(C4CC4)c3CCN12 [Example 127, 9-cyclopropyl-2-(4-(1-hydroxycyclopropyl)-1H-imidazol-1-yl)-7,8-dihydro-[1,4]diazepino[7,1-a]isoquinolin-5(4H)-one]	7		1200		
Cc1ccc(C2=NCC(=O)N3CCc4c(cccc4N4CCOCC4)C3=C2)o1 [Example 23, 2-(5-methylfuran-2-yl)-9-morpholino-7,8-dihydro-[1,4]diazepino[7,1-a]isoquinolin-5(4H)-one]	22		> 10000		
O=C1CN=C(n2cnc(C3CC3)c2)C=C2c3cccc(-c4cc(C(F)(F)F)n[nH]4)c3CCN12 [Example 99b, 2-(4-cyclopropyl-1H-imidazol-1-yl)-9-(3-(trifluoromethyl)-1H-pyrazol-5-yl)-7,8-dihydro-[1,4]diazepino[7,1-a]isoquinolin-5(4H)-one]			> 10000	41	
CO[C@H](C)c1cn(C2=NCC(=O)N3CCc4c(C5CC5)ccc(F)c4C3=C2)cn1 [Example 99j, (R)-9-cyclopropyl-12-fluoro-2-(4-(1-methoxyethyl)-1H-imidazol-1-yl)-7,8-dihydro-[1,4]diazepino[7,1-a]isoquinolin-5(4H)-one]	7		3210		
O=C1CN=C(n2cnc(C3CC3)n2)C=C2c3ccnc(C4CC4)c3CCN12 [Example 110b, 9-cyclopropyl-2-(3-cyclopropyl-1H-1,2,4-triazol-1-yl)-7,8-dihydro-[1,4]diazepino[7,1-a][2,6]naphthyridin-5(4H)-one]	758		> 10000		
CCOC(=O)c1cn(C2=NCC(=O)N3CCc4c(I)cccc4C3=C2)cn1 [Example 68, ethyl 1-(9-iodo-5-oxo-4,5,7,8-tetrahydro-[1,4]diazepino[7,1-a]isoquinolin-2-yl)-1H-imidazole-4-carboxylate]	1700		> 10000		
O=C1CN=C(n2cnc(C3CC3)c2)C=C2c3cccc(-c4cnccn4)c3CCN12 [Example 88f, 2-(4-Cyclopropyl-1H-Imidazol-1-yl)-9-(pyrazin-2-yl)-7,8-dihydro-[1,4]diazepino[7,1-a]isoquinolin-5(4H)-one]	100		1950		
Cc1cn(C2=NCC(=O)N3CCc4c(cccc4-c4cnccn4)C3=C2)cn1 [Example 106b, 2-(4-methyl-1H-imidazol-1-yl)-9-(pyrazin-2-yl)-7,8-dihydro-[1,4]diazepino[7,1-a]isoquinolin-5(4H)-one]	168		7330		
O=C1CN=C(n2cnc(C3CC3)c2)C=C2c3cccc(-c4cnccc4F)c3CCN12 [Example 88k, 2-(4-cyclopropyl-1H-imidazol-1-yl)-9-(4-fluoropyridin-3-yl)-7,8-dihydro-[1,4]diazepino[7,1-a]isoquinolin-5(4H)-one]	69		5860		
CC1=C2c3cccc(-c4cc(C)no4)c3CCN2C(=O)CN=C1n1cnc(C2CC2)c1 [Example 107, 2-(4-cyclopropyl-1H-imidazol-1-yl)-1-methyl-9-(3-methylisoxazol-5-yl)-7,8-dihydro-[1,4]diazepino[7,1-a]isoquinolin-5(4H)-one]	835		> 10000		
O=C1CN=C(n2cnc(C3CC3)n2)C=C2c3cccc(-c4nccnc4F)c3CCN12 [Example 88b, 2-(3-cyclopropyl-1H-1,2,4-triazol-1-yl)-9-(3-fluoropyrazin-2-yl)-7,8-dihydro-[1,4]diazepino[7,1-a]isoquinolin-5(4H)-one]	20		> 2000		
CCc1cn(C2=NCC(=O)N3CCc4c(cccc4C4(O)COC4)C3=C2)cn1 [2-(4-ethyl-1H-imidazol-1-yl)-9-(3-hydroxyoxetan-3-yl)-7,8-dihydro-[1,4]diazepino[7,1-a]isoquinolin-5(4H)-one]					< 20

The next lines start with the values.

IC50 (human mGluR5a receptors) [nM]	inhibition at 10 µM (human mGluR1; CHO) [%]	IC50 (human mGluR1) [nM]	inhibition at 2 µM (human mGluR5a receptors; LTK, read-out: mGluR5 % inhibition at 2 μM) [%]	inhibition at 10 µM (human mGluR5a receptors; LTK) [%]	Compound
3800		6900			Cn1cnc(C2=NCC(=O)N3CCc4c(I)cccc4C3=C2)c1 [Example 36, 9-iodo-2-(1-methyl-1H-imidazol-4-yl)-7,8-dihydro-[1,4]diazepino[7,1-a]isoquinolin-5(4H)-one]
150		1400			COc1cccc(C2=NCC(=O)N3CCc4c(I)cccc4C3=C2)c1 [Example 30, 9-iodo-2-(3-methoxyphenyl)-7,8-dihydro-[1,4]diazepino[7,1-a]isoquinolin-5(4H)-one]
90		27			O=C1CN=C(c2cccs2)C=C2c3cccc(Cl)c3CCN12 [Example 2, 9-chloro-2-(thiophen-2-yl)-7,8-dihydro-[1,4]diazepino[7,1-a]isoquinolin-5(4H)-one]
13		1400			COc1cc(C2=NCC(=O)N3CCc4c(I)cccc4C3=C2)ccn1 [Example 33, 9-iodo-2-(2-methoxypyridin-4-yl)-7,8-dihydro-[1,4]diazepino[7,1-a]isoquinolin-5(4H)-one]
180		150			O=C1CN=C(c2cccs2)C=C2c3cccc(C(F)(F)F)c3CCN12 [Example 4, 2-(thiophen-2-yl)-9-(trifluoromethyl)-7,8-dihydro-[1,4]diazepino[7,1-a]isoquinolin-5(4H)-one]
35		> 10000			O=C1CN=C(c2ccoc2)C=C2c3cccc(-c4ccncc4)c3CCN12 [Example 51, 2-(furan-3-yl)-9-(pyridin-4-yl)-7,8-dihydro-[1,4]diazepino[7,1-a]isoquinolin-5(4H)-one]
41		93			O=C1CN=C(c2ccoc2)C=C2c3cccc(I)c3CCN12 [Example 34, 2-(furan-3-yl)-9-iodo-7,8-dihydro-[1,4]diazepino[7,1-a]isoquinolin-5(4H)-one]
3900		5200			COc1cccc2c1CCN1C(=O)CN=C(c3ccnc(N(C)C)c3)C=C21 [Example 21, 2-(2-(dimethylamino)pyridin-4-yl)-9-methoxy-7,8-dihydro-[1,4]diazepino[7,1-a]isoquinolin-5(4H)-one]
				< 20	Cc1ccnn1C1=NCC(=O)N2CCc3c(Cl)cccc3C2=C1 [9-chloro-2-(5-methyl-1H-pyrazol-1-yl)-7,8-dihydro-[1,4]diazepino[7,1-a]isoquinolin-5(4H)-one]
